From article PMC8509428, “The Phenoxyalkyltriazine Antagonists for 5-HT6 Receptor with Promising Procognitive and Pharmacokinetic Properties In Vivo in Search for a Novel Therapeutic Approach to Dementia Diseases” (International Journal of Molecular Sciences, 2021)
Where “and” joins values, the source holds several entries; their conditions need not be identical. Equal values may be shown once. Read-outs that look alike come from different tables or passages of the source.

Legend:
[1] = PAMPA permeability; format: in vitro ADME; details: PBS pH 7.4, 5 h, triplicate, read-out: Pe (PAMPA permeability coefficient) ± SD
Experimental: The 96-well Pre-coated PAMPA Plate System Gentest™ that was used was obtained from Corning (Tewksbury, MA, USA). […] 200 μL/well of PBS was added to the acceptor wells. All compounds were analyzed in triplicate. The plate was incubated at room temperature for 5 h. Then, the 50 μL was aspirated from each well and diluted next with 50 µL solution of an internal standard (IS). The compounds’ concentrations in acceptor and donor wells were estimated by the UPLC-MS analyses, which were performed by LC/MS Waters ACQUITY™ TQD system with the TQ Detector (Waters, Milford, CT, USA). The permeability coefficients (Pe, cm/s) were calculated according described previously formulas.

[2] = Bi-directional Caco-2 permeability assay; format: in vitro ADME; details: human, pH 7.4, Caco-2, 10 µM, triplicate
[3] = biological target: T1, CYP3A4 (Homo sapiens, UniProt P08684); assay: CYP3A4 P450-Glo assay; format: in vitro ADME; details: all tested concentrations (0.1 to 25 μM)
T1 construct: purchased Promega
Experimental: The luminescent CYP3A4 P450-Glo™ Promega® (Madison, WI, USA) was used for the investigation of potential drug-drug interactions. All assays and protocols were described before. The compounds were tested in triplicate at the final concentrations in the range from 0.01 to 25 μM. The luminescent signal was measured by using a microplate reader EnSpire PerkinElmer (Waltham, MA, USA).

[4] = tested on: hepatoma HepG2 cell line; assay: Hepatotoxicity, HepG2 viability (MTS); format: cell-based; details: 0.1–100 µM, 72 h
Experimental: Cells were grown under previously described conditions. […] The cells’ viability was determined by CellTiter 96® AQueous Non-Radioactive Cell Proliferation Assay (MTS), which was purchased from Promega® (Madison, WI, USA). The absorbance was measured using a microplate reader EnSpire (PerkinElmer, Waltham, MA USA) at 490 nm. All compounds were tested in quadruplicate.

[5] = Pharmacokinetics and tissue distribution in rats; format: in vivo, rat; details: for Kp: intraperitoneal
Experimental: To assess pharmacokinetic profile and tissue penetration of 2 and 3, the male Wistar rats were a single intraperitoneal (i.p.) injected with these compounds dissolved in tween (vehicle volume 1 mL/kg) at a dose of 0.3 mg/kg, determined in behavioral studies. The animals were killed by decapitation under deep anesthesia (i.p. injection of 50 mg/kg ketamine and 7.5 mg/kg xylazine) at 5, 15, 30, 60, 120 and 240 min after compounds administration (four animals per time point) and blood samples (approximately 5–6 mL) were collected into tubes. Moreover, five tissues (i.e., brain, heart, lungs, kidneys and liver) were harvested, rinsed with cold saline, and the wet weights determined. Blood was allowed to clot for 15–20 min at room temperature and then centrifuged (3000 rpm for 10 min). The obtained serum and tissues were stored frozen at −80 °C until analysis.
The concentrations of both test compounds in serum and tissue homogenates were measured by a reverse-phase high-performance liquid chromatography method with ultraviolet detection (HPLC/UV). […] The mobile phase consisted of methanol/10 mM potassium dihydrogen phosphate buffer, pH 4.6/acetonitrile (51/40/9, v/v/v). The isocratic separation was performed at 1.0 mL/min constant flow-rate with column temperature maintained at 38 °C. The detection wavelength was set at 206 nm for 2 and at 215 nm for 3. […] EZChrome Elite v. 3.3.2 software (VWR, Darmstadt, Germany) was used for data acquisition.
Before analysis, tissue samples were thawed, placed in four volumes (w/v) of phosphate-buffered saline (PBS, pH 7.4) and homogenized using a MICCRA D-1 homogenizer (ART Prozess- & Labortechnik GmbH & Co., Heitersheim, Germany). To isolate 2 or 3, 500 µL of rat serum or tissue homogenate containing this compound were mixed with a 20-μL volume of IS solution (50 ng/mL or 200 ng/g in methanol). As an IS for compound 2 quantification, compound 3 was used and vice versa.
The samples were alkalized with 50 μL of 4 M sodium hydroxide solution, vortex-mixed, and extracted with 1 mL of ethyl acetate/hexane (30/70, v/v) mixture on a shaker (VXR Vibrax, IKA, Legnica, Poland) for 20 min. After centrifugation (Eppendorf, Mini Spin Plus, Hamburg, Germany), the organic layers were transferred into new tubes containing 100 μL of methanol and 0.1 M sulfuric acid (10/90, v/v) mixture. Then, the samples were shaken and centrifuged again. Finally, 20–90 μL of each acidic layer was injected into the HPLC system.
Other pharmacokinetic parameters were determined on subjecting the concentration–time data to non-compartmental analysis using Phoenix WinNonlin 8.2 software (Pharsight Corporation, a Certara Company, Princeton, NJ, USA).

[6] = tested on: rats; assay: Forced swim test (FST); format: in vivo, rat; details: for Immobility Time: 60 min before test, mean ± SEM
Experimental: The experiment was carried out according to the method of [54]. On the first day of the experiment, the animals were gently individually placed in Plexiglas cylinders (40 cm high, 18 cm in diameter) containing 15 cm of water maintained at 23–25 °C for 15 min. On removal from water, the rats were placed for 30 min in a Plexiglas box under 60-W bulb to dry. On the following day (24 h later), the rats were replaced in the cylinder and the total duration of immobility was recorded during the whole 5-min test period. The immobility was assigned when no additional activity was observed other than that necessary to keep the rat’s head above the water. Fresh water was used for each animal.

[7] = rat serum, 0.3 mg/kg i.p., 0.3 mg/kg

T1 sequence (P08684 whole entry): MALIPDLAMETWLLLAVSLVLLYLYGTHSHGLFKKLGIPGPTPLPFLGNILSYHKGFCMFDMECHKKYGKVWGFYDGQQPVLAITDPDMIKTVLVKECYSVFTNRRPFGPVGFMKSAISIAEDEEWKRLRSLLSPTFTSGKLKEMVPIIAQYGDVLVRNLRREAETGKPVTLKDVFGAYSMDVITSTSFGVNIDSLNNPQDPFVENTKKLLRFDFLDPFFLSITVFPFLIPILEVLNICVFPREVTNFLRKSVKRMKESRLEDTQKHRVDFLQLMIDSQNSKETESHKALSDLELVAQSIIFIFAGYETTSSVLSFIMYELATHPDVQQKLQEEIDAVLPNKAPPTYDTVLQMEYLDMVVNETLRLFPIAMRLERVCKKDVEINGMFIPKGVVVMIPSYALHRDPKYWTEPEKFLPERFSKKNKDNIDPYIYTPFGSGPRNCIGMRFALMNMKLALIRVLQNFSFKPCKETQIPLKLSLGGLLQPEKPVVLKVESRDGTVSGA

CCC(Oc1cccc(Cl)c1Cl)c1nc(N)nc(N2CCN(C)CC2)n1 (racemic) [Compound 2, (RS)-4-[1-(2,3-dichlorophenoxy)propyl]-6-(4-methylpiperazin-1-yl)-1,3,5-triazin-2-amine]
Papp at 5 h [1]: 20.5 ± 5.4 ×10⁻⁶ cm/s
Papp A→B at 2 h, 10 µM [2]: 50.3 ± 6.22 ×10⁻⁶ cm/s
Papp B→A at 2 h, 10 µM [2]: 21.1 ± 2.14 ×10⁻⁶ cm/s
inhibition against CYP3A4 [3]: did not display an inhibition
hepatotoxicity effect, HepG2 viability [4]: no hepatotoxicity effect
Kp, brain ([5]; AUC0-t tissue / AUC0-t serum): 2.69
Kp, kidneys ([5]; AUC0-t tissue / AUC0-t serum): 16.52
MRT ([5]; male, Wistar, ip, rat serum, 0.3 mg/kg i.p.): 90.1 min
Kp ([5]; male, Wistar, rat, brain (vs serum), 0.3 mg/kg, AUC0-t tissue / AUC0-t serum, read-out: Kp, brain): 2.03
half-life ([5]; male, Wistar, rat, brain, ip, 0.3 mg/kg, rat, 0.3 mg/kg i.p., read-out: elimination half-life, brain tissue): 149 min
Kp ([5]; male, Wistar, rat, heart / serum, 0.3 mg/kg, AUC0-t tissue / AUC0-t serum, read-out: Kp, heart): 2.3
Tmax ([5]; male, Wistar, rat, heart, ip, 0.3 mg/kg, rat, 0.3 mg/kg i.p., read-out: Tmax, heart (converted)): 5 min
Kp ([5]; male, Wistar, rat, kidneys (vs serum), 0.3 mg/kg, AUC0-t tissue / AUC0-t serum, read-out: Kp, kidneys): 16.5
Tmax ([5]; male, Wistar, rat, kidneys, ip, 0.3 mg/kg, rat, 0.3 mg/kg i.p., read-out: Tmax, kidneys (converted)): 15 min
Kp ([5]; male, Wistar, rat, liver (vs serum), 0.3 mg/kg, AUC0-t tissue / AUC0-t serum, read-out: Kp, liver): 14.4
Tmax ([5]; male, Wistar, rat, liver, ip, 0.3 mg/kg, rat, 0.3 mg/kg i.p., read-out: Tmax, liver (converted)): 15 min
Kp ([5]; male, Wistar, rat, lungs / serum, 0.3 mg/kg, AUC0-t tissue / AUC0-t serum, read-out: Kp, lungs): 8.54
Tmax ([5]; male, Wistar, rat, lungs, ip, 0.3 mg/kg, rat, 0.3 mg/kg i.p., read-out: Tmax, lungs (converted)): 5 min
CL/F ([5]; male, Wistar, rat, serum, ip, 0.3 mg/kg, rat serum, 0.3 mg/kg i.p., read-out: CL/F (converted)): 515 mL/min/kg
Tmax ([5]; male, Wistar, rat, serum, ip, 0.3 mg/kg, rat, 0.3 mg/kg i.p., read-out: Tmax, serum (converted)): 15 min
half-life ([5]; male, Wistar, rat, serum, ip, 0.3 mg/kg, rat, 0.3 mg/kg i.p., read-out: t1/2λz, serum): 116 min
Cmax ([5]; male, Wistar, serum, ip, rat, 0.3 mg/kg i.p., mean ± SD): 5.2 ± 2.24 ng/mL
AUC(0-t) ([5]; male, Wistar, serum, ip, rat, 0.3 mg/kg i.p., mean ± SD, read-out: AUC0-t, serum (converted)): 7.56 ng·h/mL
AUC(0-inf) ([5]; male, Wistar, serum, ip, rat, 0.3 mg/kg i.p., mean ± SD, read-out: AUC0-∞, serum (converted)): 8.85 ng·h/mL
CL/F [5, 7]: 514.5 ± 165 mL/min/kg
Vz/F [5, 7]: 81 L/kg and 80.99 ^a ± 18.22 L/kg
AUC0-t, brain ([5]; rat, 0.3 mg/kg i.p.): 1219.94 ± 368.79 ng·min/mL or ng·min/g
AUC0-t, liver ([5]; rat, 0.3 mg/kg i.p.): 6523.60 ± 4997.28 ng·min/mL or ng·min/g
AUC0-t, lungs ([5]; rat, 0.3 mg/kg i.p.): 3870.66 ± 680.07 ng·min/mL or ng·min/g
Cmax, heart ([5]; rat, 0.3 mg/kg i.p.): 8.90 ± 8.15 ng/mL or ng/g
Cmax, kidneys ([5]; rat, 0.3 mg/kg i.p.): 65.73 ± 34.94 ng/mL or ng/g
Cmax, liver ([5]; rat, 0.3 mg/kg i.p.): 115.22 ± 93.46 ng/mL or ng/g
Cmax, lungs ([5]; rat, 0.3 mg/kg i.p.): 54.20 ± 21.61 ng/mL or ng/g
AUC0-t, heart ([5]; rat, 0.3 mg/kg i.p., 0.3 mg/kg): 1040.7 ng·min/mL or ng·min/g and 1040.74 ± 448.65 ng·min/mL or ng·min/g
AUC0-t, kidneys ([5]; rat, 0.3 mg/kg i.p., 0.3 mg/kg): 7488.1 ng·min/mL or ng·min/g and 7488.06 ± 4372.92 ng·min/mL or ng·min/g
Cmax, brain ([5]; rat, 0.3 mg/kg i.p., 0.3 mg/kg): 11.63 ± 3.13 ng/mL or ng/g
t1/2λz, serum ([5]; rat, 0.3 mg/kg i.p., 0.3 mg/kg): 116 min and 116.18 ^a ± 17.14 min
Immobility Time ([6]; 1 mg/kg i.p.): 223.13 ± 11.4 s
Immobility Time ([6]; 3 mg/kg i.p.): 220.71 ± 4.7 s
decrease of immobility time vs vehicle-treated group ([6]; 10 mg/kg): 25%
Immobility Time ([6]; 10 mg/kg i.p.): 171.38 ± 12.80 s
